Results: patent US5053006A, “Method for the permanent occlusion of arteries” (priority 1990, dated 1991)

Assays:
[1] = system: corneal blood vessels; assay type: in vivo, New Zealand albino rabbit
Text: Both corneal and limbal epithelia, along with the conjunctival epithelium 2-3 mm beyond the limbus, were removed from New Zealand albino rabbit eyes by n-heptanol debridement and surgical scraping (Huang et al., Ophthalmology, 95:228-235, 1988, the disclosure of which is hereby incorporated by reference and relied upon). The denuded corneas were healed by the remaining conjunctival epithelium within 9 to 12 days, of which 65% became extensively vascularized two to three weeks after healing. Sixteen corneas with persistent neovascularization of 20 months duration were subjected to photothrombotic treatment.
Occlusion of corneal blood vessels was achieved by intravenous injection of the rose bengal solution at a dosage of 40 mg/kg body weight followed by irradiation of the blood vessels with an argon green laser beam (514.5 nm in wavelength) set at a power of 130 mW, beam spot size of 63 μm in diameter, and duration of 0.2 second. During the irradiation, the corneal surface was rinsed with a balanced salt solution maintained at 37° C. to ensure the efficacy of photothrombosis. The laser beam was applied to the limbus at the arborization point of each feeder vessel. In 12 corneas, the blood vessels on the upper half of the cornea were photothrombosed and those on the lower half were left untreated and used as an internal control. In the remaining four corneas, the blood vessels on the entire cornea were treated. Each blood vessel was occluded within 10 consecutive shots of irradiation. For all corneas, the treatment was completed within 30 minutes after initial injection of rose bengal solution. After laser irradiation, topical antibiotics and steroids were applied for two days. This treatment was similar to that described in Watson et al., Lasers Surg. Med., 7:127, 1987.
External ocular examinations were performed to identify changes on the ocular surface before and after photothrombosis. Surface smoothness was examined by routine slitlamp biomicroscopy. External photographs were taken to document corneal clarity and regression of the vessels.
Occlusion of the corneal blood vessels and the duration of occlusion were further studied by routine corneal fluorescein angiography using an intravenous injection of 1 ml of 10 mg/ml of sodium fluorescein. Photographs and angiograms were taken with a Zeiss surgical microscope. Baseline angiography was performed two to three days before photothrombosis to avoid possible photosensitizing effects from the fluorescein used for angiography. Follow-up angiograms were taken on the scheduled dates to document the occlusive effect and its duration. Late phase fluorescein angiograms (5 minutes after injection) were chosen for comparisons. After occlusion was confirmed by angiography, the rabbits were sacrificed on the prescheduled date and corneal buttons were obtained and subjected to epithelial differentiation studies. The total follow-up duration was 18 weeks.

[2] = system: middle cerebral artery (MCA); test: He-Ne laser photochemically induced MCA thrombosis (Example 7); assay type: in vivo, rat (male Sprague-Dawley)
Procedure: Normally fed male Sprague-Dawley rats weighting 280-330 gm were used. Anesthesia was induced with 4% halothane and maintained with 1.5% halothane, 70% N2 O and a balance of O2 delivered through a closely fitting face mask. Polyethylene catheters were inserted retrogradely into the right external carotid artery and right femoral artery and vein. The partial pressures of O2 and CO2 and the arterial pH were measured frequently. Rectal temperature was maintained at 37° C. by means of a heating pad.
Rats were mounted on a stereotaxic frame and the right MCA was exposed by a modified subtemporal approach. A portion of the jaw was removed, and the masseter muscle was retracted downward to facilitate exposure of the MCA. The mandibular joint was kept intact so as not to disturb normal feeding. To produce MCA occlusion in these studies, a low power He-Ne laser operating in the TEM^*01 (doughnut) mode at 0.8 mW and at a wavelength of 543.5 nm (PMS Electro-Optics, Boulder, CO.) was used. The efficiency of this laser in interacting with rose bengal dye is appreciable (58%) in that its emission wavelength is near the absorption maximum of rose bengal in tissue (562 nm). The animal was moutned in a stereotaxic frame, and its right side was tilted upward by 35° in order for the laser beam to strike the proximal MCA tangentially. The ring-shaped beam was focused transversely onto the exposed MCA by two crossed cylindrical lenses of 1- and 2-inch focal length. The resulting focused spot, rectangular in shape, was ~200 μm wide (spanning the diameter of the MCA perpendicular to its axis) and 40 μm high (parallel to the MCA axis).
MCA thrombosis was induced in two steps. First, the linear beam was focused transversely on the MCA segment just distal to the rhinal branch. The intensity of laser irradiation at the focal site was 10 W/cm^2. Rose bengal was then injected intravenously (30 mg/ml in saline, 0.67 ml/kg bw weight). An orange fluorescence was immediately observed in the irradiated MCA segment, and a white thrombus began to form within the fluorescent segment and gradually elongated rostrally. […]

O=C([O-])c1c(Cl)c(Cl)c(Cl)c(Cl)c1-c1c2cc(I)c(=O)c(I)c-2oc2c(I)c([O-])c(I)cc12.[Na+].[Na+] [rose bengal]
consecutive shots to occlude each blood vessel ([1]; 40 mg/kg i.v., 130 mW, 0.2 second): ≤ 10 shots | dye leakage in angiograms, treated areas ([1]; follow-up angiograms): free of dye leakage | regression of occluded corneal blood vessels ([1]; four days after treatment): gradually regressed | epithelial breakdown ([1]; rabbit, in vivo): No epithelial breakdown was observed | persistence of hemorrhagic spots ([1]; rabbit, in vivo): two to three | retention of rose bengal in corneas ([1]; rabbit, in vivo): all 16 corneas were clear of retained rose bengal | occlusion of treated vessels ([1]; two corneas, 18 weeks): all treated vessels remained occluded without recanalization, and no new vessel growth elsewhere was observed | time to complete MCA occlusion ([2]; 30 mg/ml, 0.67 ml/kg i.v., 543.5 nm He-Ne, first irradiation): ≤ 10 min | thrombus length ([2]; end of second irradiation): about 1.2 mm | thrombus length ([2]; first irradiation): ~ 400 μm
